# Data: patent US7556935B2 (Dana-Farber Cancer Institute, Inc., priority 2001, dated 2009)
# Read-outs that look alike come from different tables or passages of the source.
# Experiments:
# c-Abl [1] = test: c-Abl levels in the ER fraction, ER stress; assay type: cell-based
# Description: (§1) Cells were treated with A23187 (Sigma) or Brefeldin A (Sigma).
# (§2) Isolation of the ER fraction: Cells were washed with PBS, lysed in homogenization buffer (50 mM Tris-HCl, pH 8.0, 1 mM b-mercaptoethanol, 1 mM EDTA, 0.32 M sucrose and 0.1 mM PMSF), and then centrifuged at 5,000×g for 10 minutes. The supernatant was collected and centrifuged at 105,000×g for 1 hour. […] The resulting supernatant was used as the ER fraction.
# grp78 = grp78 expression in the ER fraction, ER stress; assay type: cell-based
# Description: as §1, §2
# c-Abl [2] = test: c-Abl targeting to mitochondria under ER stress, immunofluorescence and immunoblot; assay type: cell-based; details: mitochondrial fraction
# Description: as §1
# Digital confocal immunofluorescence microscope: Cells grown on poly-D-lysine coated glass coverslips were fixed (3.7% formaldehyde in PBS, pH 7.4; 10 minutes), permeabilized (0.2% Triton X-100; 10 min), blocked for 30 minutes in media containing serum. After rinsing with PBS, immunostaining was performed by incubating the cells with 50 ng/slide of anti-c-Abl (K-12 rabbit polyclonal; Santa Cruz) and anti-grp-78 (C-20 goat polyclonal; Santa Cruz). For c-Abl and calreticulin staining, cells were incubated first with anti-c-Abl alone for 1 hour followed by blocking for 30 minutes in media containing serum. After washing with PBS, cells were then incubated with anti-calreticulin (rabbit polyclonal; StressGen). Finally, cells were incubated with a 1:250 dilution of CY-3 or Fluorescein (FITC)-conjugated anti-rabbit or anti-goat secondary antibodies (Jackson ImmunoResearch) for 1 hour. Mitochondria were stained with 0.006 ng/slide Mitotracker Green FM (Molecular Probes). Nuclei were stained with 4,6-diamino-2-phenylindole (DAPI; 1 mg/ml in PBS). Coverslips were mounted onto slides with 0.1 M Tris (pH 7.0) in 50% glycerol. Cells were visualized by digital confocal immunofluorescence and images were captured with cooled CCD camera mounted on a Zeiss Axioplan 2 microscope. Images were deconvolved using Slidebook software (Intelligent Imaging Innovations, Inc., Denver, Colo.).
# (§3) The supernatant was collected and centrifuged at 10,000×g for 10 minutes. […] Protein concentration was determined by the Bio-Rad protein estimation kit.
# c-Abl [3] = test: c-Abl levels in cytoplasmic and nuclear fractions, ER stress; assay type: cell-based
# From the text: Isolation of cytoplasmic and nuclear fractions: The cytoplasmic and nuclear fractions were isolated as described in Example 1.
# c-Abl [4] = test: Mitochondrial c-Abl kinase activity, GST-Crk(120-225) phosphorylation, ER stress; assay type: cell-based; details: anti-c-Abl immunoprecipitates of mitochondrial fraction
# Description: as §3
# Analysis of c-Abl activity: Cell lysates were prepared as described in Example 1 and subjected to immunoprecipitation with anti-c-Abl (K-12; Santa Cruz). The immunoprecipitates were resuspended in kinase buffer (see Example 1) containing […] of [g-32P]ATP and GST-Crk(120-225) or GST-Crk(120-212) for 15 minutes at 30° C. The reaction products were analyzed by SDS-PAGE and autoradiography.
# MEFs = test: Apoptosis by sub-G1 DNA in MEFs under ER stress; assay type: cell-based, mouse; details: c-Abl−/− cells
# Description: Apoptosis assays: DNA content was assessed by staining ethanol-fixed cells with propidium iodide and monitoring by FACScan (Becton-Dickinson).
# c-Abl [5] = test: c-Abl immune complex kinase assay, phosphorylation of GST-Crk(120-225), COS7 cells; assay type: cell-based
# Description: (§4) Cell culture: COS7 cells and mouse embryonic fibroblasts (MEFs) derived from wild-type and c-Abl^−/− mice were cultured in Dulbecco's modified Eagle's medium containing 10% heat-inactivated fetal calf serum, 2 mM L-glutamine, 100 units/ml penicillin and 100 μg/ml streptomycin. DLD1 cells were grown as described (Polyak et al. (1997) Nature 389, 300-305). Cells were treated with H2O2 (Sigma), 30 mM N-acetyl-L-cysteine (NAC; Sigma) or 10 μM cis-platinum (Sigma).
# (§5) Analysis of kinase activity: Cell lysates were prepared in lysis buffer (10 mM Tris-HCl, pH 7.5, 10 mM NaCl, 1 mM DTT, 0.1 mM EDTA, 3 mM MgCl2, 0.5 mM PMSF, 5 μg/ml leupeptin) containing 0.5% Nonidet P-40 and subjected to immunoprecipitation as described (Kharbanda et al. (1997) Nature 386, 732-735) with anti-c-Abl (sc-23; Santa Cruz) or mouse IgG (Santa Cruz). The immunoprecipitates were resuspended in kinase buffer (20 mM HEPES, pH 7.4, 10 mM MgCl2, 10 mM MnCl2) containing 2.5 μCi [g-32P]ATP and GST-Crk(120-225) or GST-Crk(120-212) for 20 minutes at 30° C. Anti-PKCd (sc-937; Santa Cruz) and anti-ERK1 (sc-93; Santa Cruz) immunoprecipitates were analyzed by using histone H1 and myelin basic protein (Upstate Biotecnology Inc.), respectively, as substrates. The reaction products were analyzed by SDS-PAGE and autoradiography.
# c-Abl [6] = test: c-Abl activity in cytoplasts devoid of nuclei; assay type: cell-based
# Description: as §5
# cytochrome c [7] = details: wild-type MEFs
# Description: as §4
# cytochrome c [8] = test: Cytochrome c release in U-937 cells, immunoblot of cytoplasmic fractions; assay type: cell-based, human; details: for cytochrome c release: U-937 cells, agent alone; for effect on H2O2-induced release of cytochrome c: U-937 cells pretreated with NAC (30 mM) or rottlerin (10 µM)
# Description: (§6) Cells were also treated with 10 μM rottlerin (Calbiochem).
# (§7) Transfections were performed with Superfect (Qiagen).
# (§8) The cells were disrupted by Douce homogenization.
# PKCd [9] = molecular target: PKCd (Mus musculus, UniProt P28867); set-up: effect on H2O2-induced translocation of PKCd to mitochondria: dose or concentration left out as unconfirmed; details: NIH3T3 cells
# Description: as §7
# (§9) The supernatants (S1) were collected.
# c-Abl [10] = test: c-Abl translocation to mitochondria in MEFs, oxidative stress; assay type: cell-based, mouse
# Description: Cells were treated with 1 mM H2O2 (Sigma) and 30 mM N-acetyl-L-cysteine (NAC; Sigma). Transient transfections were performed in the presence of calcium phosphate.
# Immunofluorescence microscopy: Cells were plated onto poly D-lysine coated glass coverslips 1 day prior to H2O2 treatment (1 hour) and then fixed with 3.7% formaldehyde/PBS (pH 7.4) for 10 minutes. Cells were washed with PBS, permeabilized with 0.2% Triton X-100 for 10 minutes, washed again and incubated for 30 minutes in complete medium. The coverslips were then incubated with […] of anti-c-Abl (K-12) for 1 hour followed by Texas Red-goat anti-rabbit Ig (H+L) conjugate (Molecular Probes, Eugene, Oreg.). Mitochondria were stained with 100 nM Mitotracker Green FM (Molecular Probes, OR). Nuclei were stained with 4,6-diamino-2-phenylindole (DAPI; 1 mg/ml in PBS). Coverslips were mounted onto slides with 0.1 M Tris (pH 7.0) in 50% glycerol. Cells were visualized by digital confocal immunofluorescence and images were captured with a cooled CCD camera mounted on a Zeiss Axioplan 2 microscope. Images were deconvolved using Slidebook software (Intelligent Imaging Innovations, Inc., Denver, Colo.).
# Protein concentration was determined by the Bio-Rad protein estimation kit.
# Preparation of cell lysates: Whole cell lysates (WCL) were prepared as described (Kharbanda et al. (1995) Nature 376, 785-788) and analyzed for protein concentration.
# Immunoprecipitation and immunoblot analysis. Soluble proteins ([…]) were incubated with anti-c-Abl (K-12; Santa Cruz Biotechnology) for 1 hour and precipitated with protein A-sepharose for 30 minutes. Immunoprecipitates and lysates ([…]) were resolved by SDS-PAGE and analyzed by immunoblotting with anti-c-Abl (24-11; Santa Cruz), anti-HSP60 (Stressgen, Victoria, British Columbia), anti-b-actin (Sigma) anti-PCNA (Calbiochem), anti-PDGF receptor (Oncogene) and anti-PKCd (Santa Cruz).
# ATP levels = details: wild-type and c-Abl+ cells, H2O2
# Description: Quantitation of ATP: ATP levels were measured using an ATP Determination Kit (Molecular Probes).
# MCF-7/neo cells = test: Apoptosis by sub-G1 DNA content in MCF-7/neo cells
# PKCγ = PKCγ (Homo sapiens, UniProt P05129); test: Cytoplasmic or mitochondrial PKCγ levels in U-937 cells, immunoblot
# PKCζ = test: Cytoplasmic or mitochondrial PKCζ levels in U-937 cells, immunoblot
# [11] = test system: mitochondrial transmembrane potential; test: Mitochondrial transmembrane potential, Rhodamine 123 staining, MEFs; set-up: effect on H2O2-induced change in Ψ: dose or concentration left out as unconfirmed
# PKCd [12] = molecular target: T1, PKCd (Homo sapiens, UniProt Q05655); test: PKCd translocation to mitochondria in U-937 cells, immunoblot of fractions; assay type: cell-based; set-up: subjecting cytoplasmic and mitochondrial fractions to immunoblotting with anti-PKC antibodies; endogenous in cells; host or cells: U-937
# Description: as §6
# Mitochondria were stained with 0.006 ng/slide of Mitotracker Green FM (Molecular Probes). The slides were analyzed using a Zeiss Auxiphot fluorescence microscope coupled to a CCD camera and a power Macintosh 8100. Image analysis was performed using the IPLab Spectrum 3.1 software (Signal Analytics).
# as §7, §8, §9
# Mitochondria were stained with 0.006 ng/slide of Mitotracker Green FM (Molecular Probes). The slides were analyzed with a Zeiss Auxiphot fluorescence microscope coupled to a CCD camera and a power Macintosh 8100. Image analysis was performed using the IPLab Spectrum 3.1 software (Signal Analytics).
# PKCd [13] = molecular target: T1, PKCd; details: MCF-7 cells, TPA
# Description: Cell culture and reagents: Human U-937 myeloid leukemia cells (ATCC, Rockville, Md.) were grown in RPMI 1640 medium supplemented with 10% heat-inactivated fetal bovine serum (FBS), 100 units/ml penicillin, 100 μg/ml streptomycin, and 2 mM L-glutamine. MCF-7, MCF-7/neo, MCF-7/PKCdRD and 293T cells were grown in Dulbecco's modified Eagle's medium (DMEM) containing 10% FBS. […] Cells were also treated with 10 μM rottlerin (Calbiochem).
# catalase = test: Catalase levels in MEFs; assay type: cell-based, mouse
# From the text: As a control, degradation was inhibited when [g-S]ATP was substituted for ATP to prevent ubiquitination. […] Lactacystin, another proteosome inhibitor, was used to assess degradation of catalase in cells.
# U-937 cells = test: Apoptosis by sub-G1 DNA content in U-937 cells; assay type: cell-based, human
# T1 sequence (Q05655 whole entry): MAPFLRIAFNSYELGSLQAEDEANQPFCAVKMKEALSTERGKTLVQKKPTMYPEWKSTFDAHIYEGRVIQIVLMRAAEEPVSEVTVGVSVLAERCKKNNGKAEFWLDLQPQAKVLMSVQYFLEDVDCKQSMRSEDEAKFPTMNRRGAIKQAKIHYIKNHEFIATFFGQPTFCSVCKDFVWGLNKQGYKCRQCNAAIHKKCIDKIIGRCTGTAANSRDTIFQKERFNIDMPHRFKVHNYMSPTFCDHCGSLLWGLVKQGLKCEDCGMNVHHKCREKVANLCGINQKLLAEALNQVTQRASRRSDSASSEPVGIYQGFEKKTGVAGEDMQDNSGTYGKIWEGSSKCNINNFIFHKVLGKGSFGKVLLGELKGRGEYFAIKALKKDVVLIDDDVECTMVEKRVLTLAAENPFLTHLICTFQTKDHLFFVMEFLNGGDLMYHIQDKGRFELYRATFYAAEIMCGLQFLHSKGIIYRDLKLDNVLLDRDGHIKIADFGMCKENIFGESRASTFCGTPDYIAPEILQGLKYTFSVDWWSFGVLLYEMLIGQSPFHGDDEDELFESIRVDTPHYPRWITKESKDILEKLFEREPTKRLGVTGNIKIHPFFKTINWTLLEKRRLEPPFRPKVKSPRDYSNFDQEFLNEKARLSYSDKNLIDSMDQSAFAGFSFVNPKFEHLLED
# PKCd (Mus musculus, UniProt P28867), sequence (P28867 whole entry): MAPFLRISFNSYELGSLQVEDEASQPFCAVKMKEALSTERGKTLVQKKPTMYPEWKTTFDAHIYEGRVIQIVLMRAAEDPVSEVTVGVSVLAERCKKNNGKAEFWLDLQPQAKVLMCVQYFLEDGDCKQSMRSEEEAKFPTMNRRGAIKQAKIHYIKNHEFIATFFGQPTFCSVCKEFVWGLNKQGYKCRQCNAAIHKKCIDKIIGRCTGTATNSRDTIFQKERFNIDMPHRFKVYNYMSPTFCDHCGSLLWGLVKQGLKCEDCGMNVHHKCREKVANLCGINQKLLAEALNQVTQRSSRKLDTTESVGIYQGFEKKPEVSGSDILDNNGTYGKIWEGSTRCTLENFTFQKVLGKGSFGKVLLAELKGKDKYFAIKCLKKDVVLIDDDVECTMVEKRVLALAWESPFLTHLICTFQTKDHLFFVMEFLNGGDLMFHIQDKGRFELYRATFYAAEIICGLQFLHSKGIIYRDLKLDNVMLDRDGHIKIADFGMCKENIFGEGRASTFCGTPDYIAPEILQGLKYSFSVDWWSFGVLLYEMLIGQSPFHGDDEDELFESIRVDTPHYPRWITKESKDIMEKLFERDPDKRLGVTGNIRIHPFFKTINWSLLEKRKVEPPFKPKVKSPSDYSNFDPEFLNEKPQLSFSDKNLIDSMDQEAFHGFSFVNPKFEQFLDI
compound,measurement,setting,value
C[C@H]1CCC/C=C/[C@@H]2C[C@H](O)C[C@H]2[C@H](O)/C=C/C(=O)O1 [Brefeldin A],c-Abl levels in the ER fraction,c-Abl [1],decreases
same,expression of grp78,grp78,increases in grp78
same,"c-Abl protein in the mitochondrial fraction, immunoblot",c-Abl [2],increases in c-Abl protein
same,c-Abl levels in the cytoplasm or nucleus,c-Abl [3],no detectable effect
same,mitochondrial c-Abl activity,c-Abl [4],increases in mitochondrial c-Abl activity
same,induction of apoptosis,MEFs,abrogated
"OO [H2O2, hydrogen peroxide]",stimulation of the Crk kinase activity of anti-c-Abl immunoprecipitates,"c-Abl [5]; COS7 cells exposed to H2O2, GST-Crk(120-225) substrate",4-5 fold
same,time of maximal induction of c-Abl activity,c-Abl [5]; H2O2 exposure,30 to 60 min
same,induction of c-Abl activity,c-Abl [5]; exposure to 1 mM H2O2,5 fold
same,c-Abl activity in cytoplasts,c-Abl [6],induction of c-Abl activity
same,cytochrome c in cytoplasmic lysates,cytochrome c [7],increased levels of cytochrome c
same,cytochrome c release,cytochrome c [8],induces cytochrome c release
same,localization of PKCd to mitochondria,PKCd [9]; H2O2,localization of PKCd to mitochondria
same,total c-Abl that localizes to mitochondria,"c-Abl [10]; MEFs following H2O2, approximately 4% without treatment",approximately 20%
same,"increase in mitochondrial c-Abl protein, densitometric scanning","c-Abl [10]; MEFs, 0.5 to 1 hour of H2O2 treatment",> 5 fold
same,ATP levels,ATP levels,depletion of ATP
same,apoptosis,MCF-7/neo cells,induction of apoptosis
same,mitochondrial levels of PKCγ,PKCγ; H2O2,little if any effect
same,mitochondrial levels of PKCζ,PKCζ; H2O2,little if any effect
same,mitochondrial transmembrane potential (Ψ),"[11]; wild-type cells, H2O2",substantially diminished
same,mitochondrial PKCd,PKCd [12]; 1 mM H2O2,increases in mitochondrial PKCd
"CC(=O)N[C@@H](CS)C(=O)O [NAC, N-acetyl-L-cysteine]",effect on H2O2-induced phosphorylation of GST-Crk(120-225) by c-Abl,c-Abl [5]; 30 mM NAC,inhibited
same,effect on H2O2-induced release of cytochrome c,cytochrome c [8],blocks
same,effect on H2O2-induced translocation of c-Abl to mitochondria,c-Abl [10]; MEFs,inhibited
same,effect on H2O2-induced localization of PKCd to mitochondria,PKCd [12]; 30 mM NAC,inhibits
CCCCCCCCCCCCCC(=O)O[C@@H]1[C@@H](C)[C@@]2(O)[C@@H](C=C(CO)C[C@]3(O)C(=O)C(C)=C[C@@H]23)[C@H]2C(C)(C)[C@]12OC(C)=O [TPA],cytochrome c release,cytochrome c [8],cytochrome c release
same,translocation of PKCd to mitochondria,PKCd [13],translocates to mitochondria
same,apoptosis,MCF-7/neo cells,induction of apoptosis
same,cytoplasmic or mitochondrial levels of PKCγ,PKCγ; TPA,no detectable effect
same,cytoplasmic or mitochondrial levels of PKCζ,PKCζ; TPA,no detectable effect
same,translocation of PKCd to mitochondria,"PKCd [12]; 250 nM TPA, 100 nM bryostatin, 0.5 units/ml PLC, 10 μM DOG",increases in mitochondrial PKCd
same,percent PKCd translocation to mitochondria,"PKCd [12]; 250 nM TPA, scanned immunoblots",approximately 40%
"N.N.[Cl][Pt][Cl] [cisplatin, cis-platinum]",c-Abl activity in cytoplasts,c-Abl [6],no detectable effect
CC(=O)N[C@@H](CSC(=O)[C@]1([C@@H](O)C(C)C)NC(=O)[C@H](C)[C@@H]1O)C(=O)O [lactacystin],catalase levels,catalase; c-abl−/−arg−/− cells,little if any effect
same,catalase levels,catalase; wild-type MEFs,increase in catalase levels
CC(=O)c1c(O)c(C)c(O)c(Cc2c(O)c3c(c(C(=O)/C=C/c4ccccc4)c2O)OC(C)(C)C=C3)c1O [rottlerin],effect on H2O2-induced release of cytochrome c,cytochrome c [8],blocked
same,effect on TPA-induced cytochrome c release,cytochrome c [8]; U-937 cells pretreated with rottlerin before TPA,significantly blocks
same,cytochrome c release,cytochrome c [8],detectable release of cytochrome c
same,"apoptosis, sub-G1 DNA content",U-937 cells; rottlerin alone,low level of apoptosis
same,effect on apoptotic response to TPA,U-937 cells; rottlerin and TPA,significantly attenuated
same,effect on H2O2-induced translocation of PKCd to mitochondria,PKCd [9]; rottlerin,inhibits
same,effect on H2O2-induced translocation of c-Abl to mitochondria,c-Abl [10]; MEFs,inhibited
same,constitutive levels of mitochondrial c-Abl,"c-Abl [10]; MEFs, rottlerin alone",no effect
same,effect on TPA-induced localization of PKCd to mitochondria,PKCd [12]; 10 μM rottlerin,abrogated
cyclosporin A,effect on H2O2-induced change in Ψ,[11]; wild-type MEFs pretreated with cyclosporin A,abrogated
